# According to ChEMBL document CHEMBL4842375, “Discovery of a Potent Glutathione Peroxidase 4 Inhibitor as a Selective Ferroptosis Inducer” (J Med Chem, 2021):
# pIC50: −log10 of the molar value. Active and inactive are the calls of the source. No cut-off for these calls is given here.
# How the values were obtained:
# MCF7 = assay: Cytotoxicity against human MCF7 cells assessed as reduction in cell viability incubated for 48 hrs by MTT assay; type: functional, cell-based; conditions: MCF7, 48 h
# [1] = Toxicity in BALB/C mouse xenografted with mouse 4T1 cells assessed as change in biochemical indexes at 15 to 30 mg/kg, iv administered every two days for total 5 times and monitered every two days; type: organism-based; conditions: in vivo, dose 15-30 mg/kg
# 4T1 [2] = assay: Antitumor activity against mouse 4T1 cells xenografted in iv dosed BALB/c mouse assessed as tumor growth inhibition administered every two days for total 5 times and monitered every two days by electronic caliper method; type: functional, organism-based; conditions: dose 15-30 mg/kg
# [3] = Toxicity in BALB/C mouse xenografted with mouse 4T1 cells assessed as change in morphology of tissues and cells at 15 to 30 mg/kg, iv administered every two days for total 5 times and monitered every two days; type: organism-based; conditions: in vivo, dose 15-30 mg/kg
# 4T1 [4] = assay: Induction of ferroptosis in mouse 4T1 cells assessed as reversal of cytotoxicity after 48 hrs in presence of NAC by MTT assay; type: functional, cell-based
# 4T1 [5] = assay: Induction of ferroptosis in mouse 4T1 cells assessed as reduction in mitochondrial cristae at 5 uM incubated for 6 hrs by TEM analysis; type: functional, cell-based
# [6] = Toxicity in BALB/C mouse xenografted with mouse 4T1 cells assessed as change in body weight at 15 to 30 mg/kg, iv administered every two days for total 5 times and monitered every two days; type: organism-based; conditions: in vivo, dose 15-30 mg/kg
# 4T1 [7] = assay: Induction of intracellular ROS generation in mouse 4T1 cells at 2.5 uM incubated for 6 hrs by DCFH-DA staining based confocal laser scanning microscopic analysis; type: functional, cell-based
# HT-1080 [8] = assay: Cytotoxicity against human HT-1080 cells assessed as reduction in cell viability incubated for 48 hrs by MTT assay; type: functional, cell-based; conditions: HT-1080, 48 h
# 4T1 [9] = assay: Induction of LPO accumulation in mouse 4T1 cells at 2.5 uM incubated for 6 hrs in presence of Fer-1 by C11-BODIPY staining based flow cytometric analysis; type: functional, cell-based
# 4T1 [10] = assay: Induction of intracellular ROS generation in mouse 4T1 cells at 2.5 uM incubated for 6 hrs in presence of Fer-1 by DCFH-DA staining based flow cytometric analysis; type: functional, cell-based
# 4T1 [11] = assay: Induction of ferroptosis in mouse 4T1 cells assessed as ruptured mitochondria at 5 uM incubated for 6 hrs by TEM analysis; type: functional
# 4T1 [12] = assay: Induction of LPO accumulation in mouse 4T1 cells assessed as increase in MDA level at 2.5 uM incubated for 6 hrs; type: functional, cell-based
# 4T1 [13] = assay: Cytotoxicity against mouse 4T1 cells assessed as reduction in cell viability incubated for 48 hrs by MTT assay; type: functional, cell-based; conditions: 4T1, 48 h
# 4T1 [14] = assay: Effect on intracellular GSH level in mouse 4T1 cells assessed as reduction in GSH level; type: functional, cell-based
# 4T1 [15] = assay: Induction of intracellular ROS generation in mouse 4T1 cells at 2.5 uM incubated for 6 hrs in presence of Fer-1 by DCFH-DA staining based confocal laser scanning microscopic analysis; type: functional, cell-based
# 4T1 [16] = assay: Induction of LPO accumulation in mouse 4T1 cells at 2.5 uM incubated for 6 hrs in presence of Fer-1 by C11-BODIPY staining based confocal laser scanning microscopic analysis; type: functional, cell-based
# 4T1 [17] = assay: Induction of intracellular ROS generation in mouse 4T1 cells at 2.5 uM incubated for 6 hrs by DCFH-DA staining based flow cytometric analysis; type: functional, cell-based
# [18] = target: T1, Phospholipid hydroperoxide glutathione peroxidase GPX4 (Homo sapiens) (UniProt P36969); assay: Inhibition of GPX4 in mouse 4T1 cells assessed as decrease in intracellular GPX4 activity at 5 uM after 6 hrs; type: cell-based
# T1 sequence (whole entry): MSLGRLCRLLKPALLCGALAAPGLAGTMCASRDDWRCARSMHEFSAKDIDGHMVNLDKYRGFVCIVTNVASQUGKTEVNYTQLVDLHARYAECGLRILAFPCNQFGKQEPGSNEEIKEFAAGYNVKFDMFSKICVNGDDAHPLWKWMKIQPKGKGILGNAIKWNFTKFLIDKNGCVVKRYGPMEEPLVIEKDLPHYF
# 4T1 [19] = assay: Induction of ferroptosis in mouse 4T1 cells assessed as increase in mitochondrial membrane density at 5 uM incubated for 6 hrs by TEM analysis; type: functional, cell-based
# [20] = Selectivity index, ratio of IC50 for cytotoxicity against human HT-1080 cells in presence of Fer-1 to IC50 for cytotoxicity against human HT-1080 cells; type: functional
# 4T1 [21] = assay: Induction of LPO accumulation in mouse 4T1 cells at 2.5 uM incubated for 6 hrs by C11-BODIPY staining based confocal laser scanning microscopic analysis; type: functional, cell-based
# HT-1080 [22] = assay: Cytotoxicity against human HT-1080 cells assessed as reduction in cell viability incubated for 48 hrs in presence of Fer-1 by MTT assay; type: functional, cell-based; conditions: HT-1080, 48 h
# 4T1 [23] = assay: Induction of ferroptosis in mouse 4T1 cells assessed as reduction in GSH levels at 5 uM; type: functional, cell-based
# 4T1 [24] = assay: Antitumor activity against mouse 4T1 cells xenografted in BALB/c mouse assessed as tumor growth inhibition at 30 mg/kg, iv administered every two days for total 5 times and monitered every two days by electronic caliper method; type: functional; conditions: 4T1, iv, 48 h, read-out: TGI
# 4T1 [25] = assay: Induction of LPO accumulation in mouse 4T1 cells at 2.5 uM incubated for 6 hrs by C11-BODIPY staining based flow cytometric analysis; type: functional, cell-based
# 4T1 [26] = assay: Antitumor activity against mouse 4T1 cells xenografted in BALB/c mouse assessed as tumor growth inhibition at 15 mg/kg, iv administered every two days for total 5 times and monitered every two days by electronic caliper method; type: functional; conditions: 4T1, iv, 48 h, read-out: TGI
# 4T1 [27] = assay: Induction of ferroptosis in mouse 4T1 cells assessed as reversal of cytotoxicity after 48 hrs in presence of glutathione by MTT assay; type: functional, cell-based
# [28] = Stability of compound in glutathione after 12 hrs by HPLC analysis; type: physicochemical
compound,measurement,setting,value
O=C(NCCc1ccccc1)C(c1csc2ccccc12)N(C(=O)CCl)c1ccc(-c2cnco2)cc1 (centres undefined),pIC50,MCF7,5.16
same,Activity,[1],Non-Toxic
same,Activity,4T1 [2],Dose-Dependent Effect
same,Activity,[3],Non-Toxic
same,Activity,4T1 [4],Active
same,Activity,4T1 [5],Active
same,Activity,[6],Non-Toxic
same,Activity,4T1 [7],Active
same,pIC50,HT-1080 [8],6.82
same,Activity,4T1 [9],inactive
same,Activity,4T1 [10],inactive
same,Activity,4T1 [11],Active
same,Activity,4T1 [12],Active
same,pIC50,4T1 [13],6.11
same,Activity,4T1 [14],inactive
same,Activity,4T1 [15],inactive
same,Activity,4T1 [16],inactive
same,Activity,4T1 [17],Active
same,inhibition,[18],11.8%
same,Activity,4T1 [19],Active
same,Ratio IC50,[20],31.5
same,Activity,4T1 [21],Active
same,pIC50,HT-1080 [22],5.33
same,Activity,4T1 [23],Active
same,inhibition in vivo at 30 mg/kg,4T1 [24],55.1%
same,Activity,4T1 [25],Active
same,inhibition in vivo at 15 mg/kg,4T1 [26],33.2%
same,Activity,4T1 [27],Active
same,Stabilty,[28],Stable
